Measurements as given in ChEMBL document CHEMBL1141952, “Conformationally restricted analogs of Combretastatin A-4 derived from SU5416” (Bioorg Med Chem Lett, 2005).

Key:
PC-3 = assay: Antiproliferative activity against androgen-independent prostate cancer PC3 cell line by MTS assay; assay type: functional, cell-based; settings: Homo sapiens
MCF7 = assay: Antiproliferative activity against estrogen-dependent breast cancer MCF7 cell line by MTS assay; assay type: functional, cell-based; settings: Homo sapiens
Tubulin = Tubulin (Sus scrofa, UniProt P02554+P02550); assay: Inhibition of porcine brain tubulin polymerization by GTP-induced assembly
MDA-MB-231 = assay: Antiproliferative activity against estrogen-independent breast cancer MDA-MB-231 cell line by MTS assay; assay type: functional, cell-based; settings: Homo sapiens

Row | IC50 (PC-3) [µM] | IC50 (MCF7) [µM] | IC50 (Tubulin) [µM] | IC50 (MDA-MB-231) [µM] | Structure (SMILES)
1 | 0.54 | 0.39 | 9.1 | 1.4 | COc1ccc2c(c1)NC(=O)/C2=C/c1cccc(O)c1
2 | 0.0082 | 0.0007 | 4.5 | 0.0009 | COc1ccc2c(c1)NC(=O)/C2=C/c1cc(OC)c(OC)c(OC)c1
3 | 0.64 | 0.23 | 18 | 2.6 | COc1ccc2c(c1)NC(=O)/C2=C/c1ccc(O)cc1
4 | 44.7 | 19.7 | > 40 | 9.4 | O=C1Nc2cc(O)ccc2/C1=C\c1ccc(O)cc1

The next lines start with the compound.

Row | Structure (SMILES) | IC50 (PC-3) [µM] | IC50 (MCF7) [µM] | IC50 (Tubulin) [µM] | IC50 (MDA-MB-231) [µM]
5 | O=C1Nc2ccccc2/C1=C\c1ccc(O)cc1 | > 50 | 25.7 | > 40 | 17.5
6 | COc1cc([C@@H]2c3cc4c(cc3[C@H](O)[C@H]3COC(=O)[C@H]23)OCO4)cc(OC)c1OC [PODOFILOX] | 0.013 | – | – | 0.008
7 | O=C1Nc2ccccc2/C1=C\c1cccc(O)c1 | > 50 | 31.4 | > 40 | 16.9
8 | O=C1Nc2cc(O)ccc2/C1=C\c1cccc(O)c1 | 19.5 | 8.6 | > 40 | 4.3
